Measurements published in paper PMC6934184, “Selective DNA-PKcs inhibition extends the therapeutic index of localized radiotherapy and chemotherapy” (The Journal of Clinical Investigation, 2019).

Biological target: T1, RPS6KA2 (RSK3) (Homo sapiens, UniProt Q15349)
T1 construct: purchased Thermo Fisher Scientific (Life Technologies) SelectScreen
Test: SelectScreen Z'LYTE
Assay type: biochemical
Summary of the method: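 SelectScreen broad panel; activity (Z'LYTE, Adapta) plus binding formats. ATP: Km app for CSF1R Z'LYTE; 10 for CAMK1 Adapta. Readout = % per kinase.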

T1 sequence (Q15349 whole entry): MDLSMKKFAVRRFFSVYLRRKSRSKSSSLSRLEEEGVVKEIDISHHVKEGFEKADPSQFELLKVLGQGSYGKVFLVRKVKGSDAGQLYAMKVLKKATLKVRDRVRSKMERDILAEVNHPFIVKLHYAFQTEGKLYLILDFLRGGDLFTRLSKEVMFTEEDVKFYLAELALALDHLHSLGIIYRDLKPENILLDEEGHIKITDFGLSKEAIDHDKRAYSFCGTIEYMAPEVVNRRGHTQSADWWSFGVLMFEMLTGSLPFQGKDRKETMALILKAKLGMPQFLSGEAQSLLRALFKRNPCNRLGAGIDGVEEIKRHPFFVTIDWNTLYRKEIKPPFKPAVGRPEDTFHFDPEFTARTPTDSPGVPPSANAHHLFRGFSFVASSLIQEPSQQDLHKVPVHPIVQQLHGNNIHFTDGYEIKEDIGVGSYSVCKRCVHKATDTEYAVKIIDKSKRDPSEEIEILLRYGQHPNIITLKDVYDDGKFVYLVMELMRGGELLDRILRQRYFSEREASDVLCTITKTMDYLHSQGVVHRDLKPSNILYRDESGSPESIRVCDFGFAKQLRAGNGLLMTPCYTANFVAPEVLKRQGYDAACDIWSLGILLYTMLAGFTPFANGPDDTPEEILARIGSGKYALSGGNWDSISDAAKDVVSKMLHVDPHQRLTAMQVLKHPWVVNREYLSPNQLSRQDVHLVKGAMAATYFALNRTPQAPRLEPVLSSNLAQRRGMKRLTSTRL

## CN(C(=O)CN1CCOCC1)c1ccc2sc3c(-c4cccc5c(=O)cc(N6CC7CCC(C6)O7)oc45)cccc3c2c1 [NU5455]
  inhibition at 1 µM: 10.8%
